Test results published in patent US20210122763A1, “OGA INHIBITOR COMPOUNDS” (Janssen Pharmaceutica NV, priority 2018, published 2021).

What was measured:
[1] = molecular target: T1, recombinant human Meningioma Expressed Antigen 5 (MGEA5), also referred to as O-GlcNAcase (OGA) (Homo sapiens, UniProt O60502); assay: OGA biochemical assay (inhibition of FM-GlcNAc hydrolysis, fluorescence); details: for Emax: read-out: Enzymatic Emax (%); for IC50: read-out: Enzymatic hOGA, pIC50 (converted)
T1 construct: Full length OGA enzyme was purchased at OriGene (cat #TP322411); purchased OriGene TP322411
T1 sequence (O60502 1-916): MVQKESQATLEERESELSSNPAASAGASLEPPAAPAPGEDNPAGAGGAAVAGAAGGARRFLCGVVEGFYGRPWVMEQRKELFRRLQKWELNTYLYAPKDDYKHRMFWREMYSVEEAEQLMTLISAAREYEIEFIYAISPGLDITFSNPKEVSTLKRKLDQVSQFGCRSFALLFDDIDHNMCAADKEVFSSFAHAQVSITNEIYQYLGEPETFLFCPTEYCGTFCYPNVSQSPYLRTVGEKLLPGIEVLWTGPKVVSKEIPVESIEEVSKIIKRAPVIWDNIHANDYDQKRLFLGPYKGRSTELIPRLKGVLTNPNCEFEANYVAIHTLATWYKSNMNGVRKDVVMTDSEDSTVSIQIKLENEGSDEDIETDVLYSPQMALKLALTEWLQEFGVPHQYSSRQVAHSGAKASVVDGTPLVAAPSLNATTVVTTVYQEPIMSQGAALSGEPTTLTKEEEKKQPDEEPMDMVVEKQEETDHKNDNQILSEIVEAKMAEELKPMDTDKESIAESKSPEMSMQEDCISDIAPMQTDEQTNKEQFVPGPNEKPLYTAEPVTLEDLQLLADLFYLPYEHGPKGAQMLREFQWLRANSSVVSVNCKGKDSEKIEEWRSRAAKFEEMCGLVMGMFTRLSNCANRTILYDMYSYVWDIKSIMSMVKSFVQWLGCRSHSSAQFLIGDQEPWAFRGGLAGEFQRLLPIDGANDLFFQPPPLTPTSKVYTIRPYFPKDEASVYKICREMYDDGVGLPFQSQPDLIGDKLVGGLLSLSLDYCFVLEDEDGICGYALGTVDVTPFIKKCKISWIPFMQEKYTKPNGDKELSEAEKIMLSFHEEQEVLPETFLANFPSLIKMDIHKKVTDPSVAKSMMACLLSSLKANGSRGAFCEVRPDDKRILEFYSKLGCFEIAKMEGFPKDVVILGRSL
Excerpt: The assay is based on the inhibition of the hydrolysis of fluorescein mono-B-D-N-Acetyl-Glucosamine (FM-GcNAc) (Mariappa et al. 2015, Biochem J470:255) by the recombinant human Meningioma Expressed Antigen 5 (MGEA5), also referred to as O-GlcNAcase (OGA). The hydrolysis FM-GlcNAc (Marker Gene technologies, cat #M1485) results in the formation of B-D-N-glucosamineacetate and fluorescein. The fluorescence of the latter can be measured at excitation wavelength 485 nm and emission wavelength 538 nm. An increase in enzyme activity results in anincrease in fluorescence signal. Full length OGA enzyme was purchased at OriGene (cat #TP322411). The enzyme was stored in 25 mM Tris.HCl, pH 7.3, 100 mM glycine, 10% glycerol at −20° C. Thiamet G and GlcNAcStatin were tested as reference compounds (Yuzwa et al. 2008 Nature Chemical Biology 4:483; Yuzwa et al. 2012 Nature Chemical Biology 8:393). The assay was performed in 200 mM Citrate/phosphate buffer supplemented with 0.005% Tween-20. 35.6 g Na2HPO4 2H2O (Sigma, #C0759) were dissolved in 1 L water to obtain a 200 mM solution. 19.2 g citric acid (Merck, #1.06580) was dissolved in 1 L water to obtain a 100 mM solution. pH of the sodiumphosphate solution was adjusted with the citric acid solution to 7.2. The buffer to stop the reaction consists of a 500 mM Carbonate buffer, pH 11.0. 734 mg FM-GlcNAc were dissolved in 5.48 mL DMSO to obtain a 250 mM solution and was stored at −20° C. OGA was used at a 2 nM concentration and FM-GcNAc at a 100 uM final concentration. Dilutions were prepared in assay buffer.
50 nl of a compound dissolved in DMSO was dispensed on Black Proxiplate™ 384 Plus Assay plates (Perkin Elmer, #6008269) and 3 μl fl-OGA enzyme mix added subsequently. Plates were pre-incubated for 60 min at room temperature and then 2 μl FM-GlcNAc substrate mix added.
Plates were briefly centrifuged for 1 min at 1000 rpm and incubate at room temperature for 6 h. To stop the reaction 5 μl STOP buffer were added and plates centrifuge again 1 min at 1000 rpm. Fluorescence was quantified in the Thermo Scientific Fluoroskan Ascent or the PerkinElmer EnVision with excitation wavelength 485 nm and emission wavelength 538 nm.
For analysis a best-fit curve is fitted by a minimum sum of squares method. From this an IC50 value and Hill coefficient was obtained. High control (no inhibitor) and low control (saturating concentrations of standard inhibitor) were used to define the minimum and maximum values.

OGA = molecular target: T2, OGA (Homo sapiens, UniProt O60502); assay: OGA cellular assay (ICC detection of O-GlcNAcylated proteins in HEK293 cells inducible for P301L mutant human Tau); assay type: cell-based; details: 6 hours incubation; for Emax: HEK293, HEK293 cells inducible for P301L mutant human Tau, maximum = Thiamet G 200 uM; for EC50: HEK293 cells inducible for P301L mutant human Tau, read-out: Cellular hOGA, pEC50 (converted)
T2 construct: HEK293 cells inducible for P301L mutant human Tau (isoform 2N4R) were established at Janssen; endogenous in cells; host or cells: HEK293 cells inducible for P301L mutant human Tau (2N4R)
T2 sequence (O60502 1-916): T1 sequence (O60502 1-916)
Experimental: HEK293 cells inducible for P301L mutant human Tau (isoform 2N4R) were established at Janssen. Thiamet-G was used for both plate validation (high control) and as reference compound (reference EC50 assay validation). OGA inhibition is evaluated through the immunocytochemical (ICC) detection of O-GlcNAcylated proteins by the use of a monoclonal antibody (CTD110.6; Cell Signaling, #9875) detecting 0-GlcNAcylated residues as previously described (Dorfmueller et al. 2010 Chemistry & biology, 17:1250). Inhibition of OGA will result in an increase of 0-GlcNAcylated protein levels resulting in an increased signal in the experiment. Cell nuclei are stained with Hoechst to give a cell culture quality control and a rough estimate of immediate compounds toxicity, if any. ICC pictures are imaged with a Perkin Elmer Opera Phenix plate microscope and quantified with the provided software Perkin Elmer Harmony 4.1.
Cells were propagated in DMEM high Glucose (Sigma, #D5796) following standard procedures. 2 days before the cell assay cells are split, counted and seeded in Poly-D-Lysine (PDL) coated 96-wells (Greiner, #655946) plate at a cell density of 12,000 cells per cm^2 (4,000 cells per well) in 100p of Assay Medium (Low Glucose medium is used to reduce basal levels of GlcNAcylation) (Park et al. 2014 The Journal of biological chemistry 289:13519). At the day of compound test medium from assay plates was removed and replenished with 90 μl of fresh Assay Medium. 10 μl of compounds at a 10 fold final concentration were added to the wells. Plates were centrifuged shortly before incubation in the cell incubator for 6 hours. DMSO concentration was set to 0.2%. Medium is discarded by applying vacuum. For staining of cells medium was removed and cells washed once with 100 μl D-PBS (Sigma, #D8537). From next step onwards unless other stated assay volume was always 50p and incubation was performed without agitation and at room temperature. Cells were fixed in 50 μl of a 4% paraformaldehyde (PFA, Alpha aesar, #043368) PBS solution for 15 minutes at room temperature. […] Before analysis samples were washed 2 times manually for 5 minutes in ICC base buffer.
Imaging is performed using Perkin Elmer Phenix Opera using a water 20× objective and recording 9 fields per well. Intensity readout at 488 nm is used as a measure of O-GlcNAcylation level of total proteins in wells. To assess potential toxicity of compounds nuclei were counted using the Hoechst staining. IC50-values are calculated using parametric non-linear regression model fitting. As a maximum inhibition Thiamet G at a 200 uM concentration is present on each plate. In addition, a concentration response of Thiamet G is calculated on each plate.

Row | Structure (SMILES) | Emax [1] [%] | IC50 [1] [nM] | Emax (OGA) [%] | EC50 (OGA) [nM]
1 | Cc1cc(OC2CCN(C(C)c3nc4c(cc3F)CCO4)CC2)c(Cl)c(C)n1 (stereo not drawn) [Compound 35] | 101 | 7.94 | 98 | 25.1
2 | Cc1cc(COC2CCN(Cc3ccc4sc(C)nc4n3)CC2)cc(C)n1 [Compound 36] | 90 | 1260 | 7 | > 1000
3 | Cc1cc(OC2CCN(C(C)c3cc4nc(C)sc4cc3F)CC2)nc(C)n1 (stereo not drawn) [Compound 38] | 101 | 15.8 | 64 | 251
4 | Cc1cc(OC2CCN(C(C)c3cnc4sc(C)nc4c3)CC2)cc(C)n1 (stereo not drawn) [Compound 40] | 101 | 126 | 59 | 631
5 | Cc1ccc(OC2CCN(C(C)c3ccc4c(n3)OCCO4)CC2)cn1 (stereo not drawn) [Compound 41] | 99 | 50.1 | 74 | 501
6 | CC(c1ccc2c(n1)OCCO2)N1CCC(COc2ccc(C(F)(F)F)cn2)CC1 (stereo not drawn) [Compound 43] | 96 | 501 | 25 | > 1000
7 | Cc1cccc(OC2CCN(C(C)c3ccc4c(n3)OCCO4)CC2)n1 (stereo not drawn) [Compound 46] | 98 | 158 | 33 | > 1000
8 | Cc1cc(OC2CCN(C(C)c3cnc4c(c3)OCC4)CC2)cc(C)n1 (stereo not drawn) [Compound 58] | 89 | 1260 | 38 | –
9 | Cc1cc(OC2CCN(C(C)c3ccc4c(n3)OCC4)CC2)cc(C)n1 (stereo not drawn) [Compound 60] | 95 | 39.8 | 84 | 117
10 | Cc1cc(OC2CCN(C(C)c3ccc4c(n3)OCCO4)CC2)cc(C(F)F)n1 (stereo not drawn) [Compound 64] | 94 | 31.6 | 61 | 316
11 | Cc1cc(OC2CCN(C(C)c3ccc4c(n3)OCCO4)CC2)c(Cl)c(C)n1 (stereo not drawn) [Compound 66] | 96 | 79.4 | 73 | 251

The next lines start with the values.

Row | Emax [1] [%] | IC50 [1] [nM] | Emax (OGA) [%] | EC50 (OGA) [nM] | Structure (SMILES)
12 | 98 | 398 | 23 | > 1000 | COc1cc(OC2CCN(C(C)c3cnc4c(c3)OCCO4)CC2)cc(C)n1 (stereo not drawn) [Compound 37]
13 | 101 | 20 | 73 | 316 | CC(c1nc2c(cc1F)OCCO2)N1CCC(Oc2ccc(C(F)(F)F)nn2)CC1 (stereo not drawn) [Compound 39]
14 | 101 | 100 | 21 | > 1000 | CC(c1ccc2c(n1)OCCO2)N1CCC(Oc2ccc(C(F)(F)F)cn2)CC1 (stereo not drawn) [Compound 42]
15 | 98 | 200 | 57 | 501 | Cc1ccnc(OC2CCN(C(C)c3ccc4c(n3)OCCO4)CC2)c1 (stereo not drawn) [Compound 44]
16 | 96 | 100 | 59 | 631 | Cc1cc(OC2CCN(C(C)c3ccc4c(n3)OCCO4)CC2)ccn1 (stereo not drawn) [Compound 45]
17 | 99 | 63.1 | 67 | 316 | Cc1cncc(OC2CCN(C(C)c3ccc4c(n3)OCCO4)CC2)c1 (stereo not drawn) [Compound 47]
18 | 98 | 20 | 84 | 251 | Cc1cc(C(F)(F)F)cc(OC2CCN(C(C)c3nc4c(cc3F)OCCO4)CC2)n1 (stereo not drawn) [Compound 48]
19 | 99 | 20 | 81 | 288 | CC(c1nc2c(cc1F)OCCO2)N1CCC(Oc2ccc(C#N)cn2)CC1 (stereo not drawn) [Compound 49]
20 | 95 | 1000 | 9 | > 1000 | CC(c1ccc2c(n1)OCCO2)N1CCC(Oc2ncccc2C#N)CC1 (stereo not drawn) [Compound 50]
21 | 100 | 63.1 | 60 | 631 | CC(c1ccc2c(n1)OCCO2)N1CCC(Oc2ccnc(C#N)c2)CC1 (stereo not drawn) [Compound 51]
22 | 96 | 501 | 16 | > 1000 | CC(c1ccc2c(n1)OCCO2)N1CCC(Oc2ncc(F)cc2F)CC1 (stereo not drawn) [Compound 52]
23 | 96 | 10 | 80 | 79.4 | Cc1cc(OC2CCN(C(C)c3nc4c(cc3F)OCCO4)CC2)cc(C(F)F)n1 (stereo not drawn) [Compound 63]
24 | 99 | 12.6 | 101 | 63.1 | Cc1cc(OC2CCN(C(C)c3nc4c(cc3F)OCCO4)CC2)c(Cl)c(C)n1 (stereo not drawn) [Compound 65]
25 | 102 | 126 | 60 | 631 | CC(c1ccc2c(n1)OCCO2)N1CCC(Oc2cnc(Cl)nc2)CC1 (stereo not drawn) [Compound 67]
